The source of these data is US11273126B2, “Amorphous dispersion of cyclopropanecarboxylic acid (5-{5-[N′-(2-chloro-6-methylbenzoyl) hydrazinocarbonyl]-2-methyl-phenylethynyl}-pyridin-2-yl) amide” (SUN PHARMA ADVANCED RESEARCH COMPANY LIMITED, priority 2017, dated 2022).

The data set can be described thus: Oral administration to dogs, plasma levels of compound of formula I (bioavailability). The format is in vivo. Particulars: dog, plasma level of compound of formula I. How it is done:
Suitable amount of amorphous dispersion of Example I and the crystalline form of compound of formula I suspended in a vehicle were administered orally to dogs. Blood samples were withdrawn at various time intervals and the plasma levels of compound of formula I were recorded. The Cmax, AUC0 to 1 and AUC0-∞, in plasma are tabulated below.

Usually AUC(0-inf) stands for total exposure, with the tail of the curve extrapolated. Read a high AUC(0-inf) as more exposure. Usually AUC(0-t) stands for exposure summed from dosing to a finite time, without extrapolation to infinity. A low value points to low exposure. By Cmax is commonly meant the highest concentration seen after dosing. The molecule `Cc1ccc(C(=O)NNC(=O)c2c(C)cccc2Cl)cc1C#Cc1ccc(NC(=O)C2CC2)nc1` [Compound of formula I in a vehicle, cyclopropanecarboxylic acid (5-{5-[N′-(2-chloro-6-methylbenzoyl) hydrazinocarbonyl]-2-methyl-phenylethynyl}-pyridin-2-yl)amide] registered an AUC(0-inf) of 388 ng·h/mL, an AUC(0-t) of 290 ng·h/mL and a Cmax of 41 ng/mL.
